Assay results taken from the NIST ThermoML archive (doi:10.1016/j.jct.2012.08.010).
Numbers after ± are expanded uncertainties.

What was measured:
[1] = 101 kPa, Liquid, Vibrating tube method
[2] = refractive index (Na D-line) (dimensionless); details: 101.33 kPa, Liquid, Standard Abbe refractometry
[3] = xn = mol fraction of the nth substance listed; details: 101 kPa, Liquid, Vibrating tube method, x2 = 0
[4] = refractive index (Na D-line) (dimensionless); φn = volume fraction of the nth substance listed; details: 101 kPa, Liquid, Standard Abbe refractometry, φ2 = 0

SMILES	mass density ([1]; 288.15 K) [kg/m3]	mass density ([1]; 298.15 K) [kg/m3]	mass density ([1]; 308.15 K) [kg/m3]	mass density ([1]; 318.15 K) [kg/m3]	mass density ([1]; 328.15 K) [kg/m3]	refractive index ([2]; 288.15 K)	refractive index ([2]; 298.15 K)	refractive index ([2]; 308.15 K)	refractive index ([2]; 318.15 K)	refractive index ([2]; 328.15 K)	mass density ([3]; 288.15 K) [kg/m3]	mass density ([3]; 298.15 K) [kg/m3]	mass density ([3]; 308.15 K) [kg/m3]	mass density ([3]; 318.15 K) [kg/m3]	mass density ([3]; 328.15 K) [kg/m3]	refractive index ([4]; 288.15 K)	refractive index ([4]; 298.15 K)	refractive index ([4]; 308.15 K)	refractive index ([4]; 318.15 K)	refractive index ([4]; 328.15 K)
Cc1ccc(C)cc1 [1,4-dimethylbenzene]	865.3 ± 0.1	856.62 ± 0.13	847.97 ± 0.13	839.21 ± 0.13	830.39 ± 0.14	1.49836 ± 0.00031	1.49298 ± 0.00031	1.48743 ± 0.00031	1.48202 ± 0.00031	1.47654 ± 0.00031										
Cc1ccccc1C [1,2-dimethylbenzene] + C=C[Si]1(C)O[Si](C)(C=C)O[Si](C)(C=C)O[Si](C)(C=C)O1											884.07 ± 0.12	875.67 ± 0.13	867.3 ± 0.1	858.81 ± 0.13	850.24 ± 0.13	1.50775 ± 0.00031	1.50257 ± 0.00031	1.49724 ± 0.00031	1.49201 ± 0.00031	1.48661 ± 0.00031
Cc1cccc(C)c1 [1,3-dimethylbenzene]	868.39 ± 0.13	859.83 ± 0.13	851.25 ± 0.13	842.58 ± 0.13	833.85 ± 0.14	1.49969 ± 0.00031	1.49444 ± 0.00031	1.48894 ± 0.00031	1.48355 ± 0.00031	1.4782 ± 0.0003										
Cc1cccc(C)c1 [1,3-dimethylbenzene] + C=C[Si]1(C)O[Si](C)(C=C)O[Si](C)(C=C)O[Si](C)(C=C)O1											868.39 ± 0.13	859.83 ± 0.13	851.25 ± 0.13	842.58 ± 0.13	833.85 ± 0.14	1.49969 ± 0.00031	1.49444 ± 0.00031	1.48894 ± 0.00031	1.48355 ± 0.00031	1.4782 ± 0.0003
Cc1ccccc1C [1,2-dimethylbenzene]	884.07 ± 0.12	875.67 ± 0.13	867.3 ± 0.1	858.81 ± 0.13	850.24 ± 0.13	1.50775 ± 0.00031	1.50257 ± 0.00031	1.49724 ± 0.00031	1.49201 ± 0.00031	1.48661 ± 0.00031										
CCc1ccccc1 [ethylbenzene]	871.31 ± 0.13	862.55 ± 0.13	853.75 ± 0.13	844.87 ± 0.13	835.93 ± 0.13	1.49834 ± 0.00031	1.49297 ± 0.00031	1.48747 ± 0.00031	1.48202 ± 0.00031	1.47649 ± 0.00031										
C=C[Si]1(C)O[Si](C)(C=C)O[Si](C)(C=C)O[Si](C)(C=C)O1 (stereo not given) [2,4,6,8-tetramethyl-2,4,6,8-tetravinylcycloterasiloxane]	992.74 ± 0.13	982.54 ± 0.13	972.34 ± 0.13	962.14 ± 0.13	951.94 ± 0.13	1.43674 ± 0.00033	1.43202 ± 0.00033	1.4273 ± 0.0003	1.42257 ± 0.00033	1.41785 ± 0.00033										
Cc1ccc(C)cc1 [1,4-dimethylbenzene] + C=C[Si]1(C)O[Si](C)(C=C)O[Si](C)(C=C)O[Si](C)(C=C)O1											865.3 ± 0.1	856.62 ± 0.13	847.97 ± 0.13	839.21 ± 0.13	830.39 ± 0.14	1.49836 ± 0.00031	1.49298 ± 0.00031	1.48743 ± 0.00031	1.48202 ± 0.00031	1.47654 ± 0.00031
CCc1ccccc1 [ethylbenzene] + C=C[Si]1(C)O[Si](C)(C=C)O[Si](C)(C=C)O[Si](C)(C=C)O1											871.31 ± 0.13	862.55 ± 0.13	853.75 ± 0.13	844.87 ± 0.13	835.93 ± 0.13	1.49834 ± 0.00031	1.49297 ± 0.00031	1.48747 ± 0.00031	1.48202 ± 0.00031	1.47649 ± 0.00031
